pIC50: −log10 of the molar value.
Tests used:
Type in all cases: cell-based
MDA-MB-231 (HER2−) cells = assay: In vitro cytotoxicity, negative control cell line (Examples 131-133); details: Homo sapiens, MDA-MB-231, 120 h, Table 8 / FIG. 22C, 5 days incubation, read-out: IC50 (MDA-MB231 cells)
Method: (§1) The cells were incubated for 5 days in a humidified atmosphere at 37° C. and 5% CO2. […] After approximately 4 hours in a humidified atmosphere at 37° C. and 5% CO2 the fluorescence was detected with a fluorescence plate reader (Infinite® M1000 Tecan) at 560 nm excitation and 590 nm emission. The relative fluorescent units (RFU) were normalized to cell viability percentage by setting wells without cells at 0% viability and wells with untreated cells at 100% viability (see FIGS. 22A-22C).
(§2) After approximately 4 hours in a humidified atmosphere at 37° C. and 5% CO2 the fluorescence was detected with a fluorescence plate reader (Infinite® M1000 Tecan) at 560 nm excitation and 590 nm emission. The relative fluorescent units (RFU) were normalized to cell viability percentage by setting wells without cells at 0% viability and wells with untreated cells at 100% viability (see FIGS. 23A-23B).
as §1, with “24A-24B).” for “22A-22C).”

NCI-N87 (HER2 3+) cells = assay: In vitro cytotoxicity, resazurin cell viability (Examples 131-133); details: Homo sapiens, NCI-N87, 120 h; Table 8 / FIG. 22A, DAR8 ADCs and free payloads, 5 days incubation
Method: as §1, §2
as §1, with “24A-24B).” for “22A-22C).”

BT-474 cells = assay: In vitro cytotoxicity (Example 131); details: Homo sapiens, Table 8 / FIG. 22B, DAR8 ADCs and free payloads
Method: as §1

With CO[C@@]12[C@H](COC(N)=O)C3=C(C(=O)C(C)=C(N)C3=O)N1C[C@@H]1N[C@@H]12 [Mitomycin (free payload), Mitomycin C] as the compound, how does the pIC50 (MDA-MB-231 (HER2−) cells) read?
Its pIC50 is under 7.00.

And the pIC50 (NCI-N87 (HER2 3+) cells)?
Its pIC50 is 7.03.

And the pIC50 (BT-474 cells)?
The pIC50 was 6.04.

From patent US20260021196A1, “HOMOGENEOUS ANTIBODY-CONJUGATES WITH HIGH PAYLOAD LOADING” (SYNAFFIX B.V., priority 2023, published 2026)
